Test results published in patent publication US12428399B2, “Non-hygroscopic crystalline salts of a pyrazole compound, and pharmaceutical compositions and use thereof” (Yissum Research Development Company of the Hebrew …, priority 2019, dated 2025).
Structures can show the parent of a compound that is named as a salt. Where two headings read alike, the source gives them in different places.

Columns and labels:
[1] = Dynamic vapor sorption (DVS) analysis of salts; format: physicochemical; settings: for loss upon drying at 5% RH / gain from 5 to 95% RH / loss from 95 to 5% RH: DVS isotherm graph; for gain from 5 to 95% RH: adsorption cycle; for loss from 95 to 5% RH: desorption cycle
Description: The crystalline adipate, benzoate, and tosylate salts were characterized with XRPD, DSC, TGA, and DVS. The DVS analyses were carried out using TA Instruments Q5000 Dynamic Vapor Sorption analyzer. The instrument was calibrated with standard weights and a sodium bromide standard for humidity.

[2] = Solubility by aliquot addition of test solvent with visual inspection; format: physicochemical; settings: solution from solubility test
From the text: Whether dissolution had occurred was judged by visual inspection after addition of each solvent aliquot.

[3] = system: acute myeloid leukemia (AML); settings: AML mouse models and human-patient-derived xenograph mouse models; cited from earlier work
[4] = Bulk density of the ditosylate salt; format: physicochemical
Myc, MDM2, and MCL1 = settings: cited from earlier work
[5] = system: Ser 45 β-catenin phosphorylation; p53 and β-catenin protein expression; settings: cited from earlier work
CK1α = CK1α (Homo sapiens, UniProt P48729); settings: cited from earlier work
[6] = indicated by DVS isotherm graph

Chain of CK1α (P48729 whole entry): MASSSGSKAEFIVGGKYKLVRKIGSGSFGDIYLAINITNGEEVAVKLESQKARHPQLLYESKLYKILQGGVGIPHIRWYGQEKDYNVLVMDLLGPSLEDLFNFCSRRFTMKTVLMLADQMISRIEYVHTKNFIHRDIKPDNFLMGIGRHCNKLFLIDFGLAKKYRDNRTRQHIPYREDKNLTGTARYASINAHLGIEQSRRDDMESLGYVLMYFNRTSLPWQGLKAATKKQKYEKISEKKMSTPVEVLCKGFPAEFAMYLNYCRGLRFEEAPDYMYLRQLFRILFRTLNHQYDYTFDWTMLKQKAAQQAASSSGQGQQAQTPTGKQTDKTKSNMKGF

## Cn1ncc(-c2nc(NC3CCC(N)CC3)ncc2Cl)c1CC1CC1 (stereo not drawn) [benzoate salt, (1r,4r)-N^1-(5-chloro-4-(5-(cyclopropylmethyl)-1-methyl-1H-pyrazol-4-yl)pyrimidin-2-yl)cyclohexane-1,4-diamine]
[1]
  loss upon drying at 5% RH: 0.02%
  gain from 5 to 95% RH: 1.20%
  loss from 95 to 5% RH: 1.30%
[2]; listed as Benzoate
  pH of Solution: 4.31

## Cl.Cl.Cn1ncc(-c2nc(N[C@H]3CC[C@H](N)CC3)ncc2Cl)c1CC1CC1 [dihydrochloride salt, (1r,4r)-N^1-(5-chloro-4-(5-(cyclopropylmethyl)-1-methyl-1H-pyrazol-4-yl)pyrimidin-2-yl)cyclohexane-1,4-diamine dihydrochloride, reference compound]
[3]
  treating acute myeloid leukemia (AML): effective
[1]
  loss upon drying at 5% RH: 1.2%
  gain from 5 to 95% RH: 17%
  loss from 95 to 5% RH: 16%
[1]; background statement, no method given there
  hygroscopicity: highly hygroscopic
[1]; [6]
  hygroscopicity: highly hygroscopic
[2]
  pH of Solution: 1.55

## Cn1ncc(-c2nc(NC3CCC(N)CC3)ncc2Cl)c1CC1CC1 (stereo not drawn) [ditosylate salt, (1r,4r)-N^1-(5-chloro-4-(5-(cyclopropylmethyl)-1-methyl-1H-pyrazol-4-yl)pyrimidin-2-yl)cyclohexane-1,4-diamine]
25° C./60% RH, 6-Month
  Assay by HPLC (as free base): 100.5 % w/w
  Purity by HPLC: 99.8 % area
  Water contectnt by Karl Fisher: 0.41 % w/w
  pTSA content by HPLC: 48.6 % w/w
25° C./60% RH, Initial
  Assay by HPLC (as free base): 100.5 % w/w
  Purity by HPLC: 99.8 % area
  Water contectnt by Karl Fisher: 0.41 % w/w
  pTSA content by HPLC: 49.9 % w/w
40° C./75% RH, 6-Month
  Assay by HPLC (as free base): 100.3 % w/w
  Purity by HPLC: 99.8 % area
  Water contectnt by Karl Fisher: 0.58 % w/w
  pTSA content by HPLC: 49.5 % w/w
40° C./75% RH, Initial
  Assay by HPLC (as free base): 100.5 % w/w
  Purity by HPLC: 99.8 % area
  Water contectnt by Karl Fisher: 0.41 % w/w
  pTSA content by HPLC: 49.9 % w/w
[4]
  bulk density: 0.377 g/mL
[1]; [6]
  hygroscopicity: not hygroscopic
[2]
  pH of Solution: 5.82

## Cn1ncc(-c2nc(N[C@H]3CC[C@H](N)CC3)ncc2Cl)c1CC1CC1 [the Compound, (1r,4r)-N^1-(5-chloro-4-(5-(cyclopropylmethyl)-1-methyl-1H-pyrazol-4-yl)pyrimidin-2-yl)cyclohexane-1,4-diamine]
Myc, MDM2, and MCL1
  expression of key cancer initiating genes, including Myc, MDM2, and MCL1: significantly reduces
[5]
  Ser 45 β-catenin phosphorylation: reduces
  p53 and β-catenin protein expression: increases
CK1α
  CK1α inhibition: inhibitor

## (1r,4r)-N^1-(5-chloro-4-(5-(cyclopropylmethyl)-1-methyl-1H-pyrazol-4-yl)pyrimidin-2-yl)cyclohexane-1,4-diamine [adipate salt]
[1]
  loss upon drying at 5% RH: 0.05%
  gain from 5 to 95% RH: 1.05%
  loss from 95 to 5% RH: 1.11%
[1]; [6]
  hygroscopicity: not hygroscopic
[2]
  pH of Solution: 4.73
